The results in this text go back to US10590109B2, “Heterocyclic compounds used as FGFR inhibitors” (Nanjing InnoCare Pharma Tech Co., Ltd., priority 2016, dated 2020).

The target of test [1] is human recombinant FGFR3 catalytic structural domain protein (Homo sapiens (Human), UniProt P22607). Description: FGFR3 activity inhibition test (HTRF kinase assay). It counts as biochemical. To be noted: 90 μM ATP. As for the experimental part:
FGFR3 Activity Inhibition Test
The influence of the compound according to the present invention on the activity of fibroblast growth factor receptor 3 (FGFR3) was evaluated by an in vitro kinase assay experiment.
(§1) The experimental method is summarized as follows:
The in vitro activity of FGFR3 was determined by assaying the phosphorylation level of the substrate in the kinase reaction, by means of an HTRF kinase assay kit. The reaction buffer comprised the following components: 5-fold diluted Enzymatic buffer/kinase 5× (Cisbio, Catalog number 62EZBFDD) (main ingredient: 50 mM HEPES, pH 7.0), 5 mM MgCl2, 1 mM DTT; the human recombinant FGFR3 catalytic structural domain protein (amino acids 399-806) was commercially available from Sino Biological Inc., diluted with the reaction buffer to a 0.3 ng/μL kinase solution; the substrate reaction solution comprised a biotin labeled tyrosine kinase substrate diluted with the reaction buffer to 1000 nM (Cisbio, catalog number 62TK0PEC), and 90 μM ATP, and the assay solution comprised an Eu^3+ labeled cage-shaped antibody (Cisbio, Catalog number 61T66KLB) diluted with the assay buffer (Cisbio, Catalog number 62SDBRDF) to 0.125 ng/μL, and 62.5 nM streptavidin labeled XL665 (Cisbio, Catalog number 610SAXLB).
The compound was dissolved and diluted in 100% DMSO to 100 μM, then 4-fold-series diluted with DMSO to a minimum concentration of 0.0061 μM, and each concentration point was then 40-fold diluted with the reaction buffer. If the IC50 value of the compound was very low, the initial concentration of the compound could be reduced.
4 μL of a compound solution and 2 μL of an FGFR3 kinase solution were added into a 384 well assay plate (Thermo, Catalog number 264706), mixed uniformly and then incubated for 15 min at room temperature; subsequently, 4 μL of the substrate reaction solution was added therein, and the reaction mixture was incubated for 60 min at room temperature; and then 10 μL of an assay solution of an equal volume to the reaction was added therein and mixed uniformly, followed by placement at room temperature. After 60 min, the enzyme reaction was terminated by EDTA in the assay solution, and the phosphorylated products were identified by both the Eu^3+ labeled cage-shaped antibody (donor) and the streptavidin labeled XL665 antibody (receptor) at the same time. After the excitation with laser, the donors and receptors that were close to each other experienced energy resonance transfer, and the energy transferred from the donor (620 nm) to the receptor (665 nm) could be detected with Envision. The ratio of 665/620 is in positive correlation to the phosphorylation degree of the substrate, thereby to detect the FGFR3 kinase activity. […] The inhibition percentage of the compound against […] activity could be calculated with the following formula: Inhibition percentage=100−100*(signalcompound−signalnegative control)/(signalpositive control−signalnegative control)
The IC50 value of the compound was calculated by the following formula, from 10 concentration points, with XLfit (ID Business Solutions Ltd., UK): Y=Bottom+(Top−Bottom)/(1+10^((Log IC50−X)*slope factor)) Where, Y is the inhibition percentage, Bottom is the bottom plateau of the curve (the bottom plateau of the S-type curve), Top is the top plateau of the curve (the top plateau of the S-type curve), and X is the log value of the compound concentration to be measured.

A further test deals with Hep3B cells. Put plainly: Hep3B cell proliferation inhibition test (CellTiter-Glo). The test is classed as cell-based. To be noted: Homo sapiens, 72 h, CTG. The protocol:
Hep3B Cell Proliferation Inhibition Test
The influence of the compound according to the present invention on Hep3B cell proliferation was evaluated by a luminescence cell viability test.
as §1
A CellTilter-Glo (CTG) assay kit was used to detect an indicator ATP of active cellular metabolism by means of a unique stable luciferase, and the luminous signal produced in the test was in direct proportion to the count of active cells in the medium, thereby to detect the cell proliferation of Hep3B.
A CellTilter-Glo agent (Promega, G7572) was comprised of a CellTilter-Glo lyophilized powder and a CellTilter-Glo buffer, and the lyophilized powder was dissolved into the buffer in use.
Hep3B cells (ATCC, HB-8064) (cell source: Shanghai Academy of Life Sciences, Chinese Academy of Sciences) were cultured in a DMEM complete medium (Thermofisher, 11995073) containing a 10% FBS (GBICO, 10099-141) and 100 units/ml mycillin mixed solution (Thermofisher, 15140122). When the cells coverage reached 80-90% in the culture vessel, after the cells were digested and blown about with 0.25% pancreatin (containing EDTA) (Thermofisher, 25200056), they were planted in a white 384 well plate (Thermofisher, 164610), with 1000 cells in each well (27 μl of a DMEM complete medium), and then the 384 well plate was placed into an incubator at 37° C. and 5% CO2 and cultured overnight (18-20 h). The compound was dissolved and diluted in 100% DMSO to 100 μM, then 4-fold-series diluted with DMSO to a minimum concentration of 0.0061 μM, and each concentration point was 50-fold diluted with the FBS-free DMEM medium. If the IC50 value of the compound was very low, the initial concentration of the compound could be reduced. […] This 384 well plate was placed into an incubator at 37° C. and 5% CO2 for further culture, taken out after 72 h, and stood at room temperature for 30 min. The CTG agent was also taken out and balanced to room temperature. 15 μl of the CTG agent was added into each well, and placed onto a shaker to be gently shaken for 3 min to ensure sufficient cell lysis. After 10 min of standing to allow the luminescence signal to be stable, the luminescence signal was read with EnVision (Perkin Elmer).
The inhibition percentage of the compound against Hep3B cell proliferation could be calculated with the following formula: Inhibition percentage=100−100*(signalcompound−signalnegative control)/(signalpositive control−signalnegative control)
The IC50 value of the compound was calculated by the following formula, from 8 concentration points, with XLfit (ID Business Solutions Ltd., UK): Y=Bottom+(Top−Bottom)/(1+10^((Log IC50−X)*slope factor))
Where, Y is the inhibition percentage, Bottom is the bottom plateau of the curve (the bottom plateau of the S-type curve), Top is the top plateau of the curve (the top plateau of the S-type curve), and X is the log value of the compound concentration to be measured.

human recombinant FGFR3 catalytic structural domain protein, sequence (P22607 399-806): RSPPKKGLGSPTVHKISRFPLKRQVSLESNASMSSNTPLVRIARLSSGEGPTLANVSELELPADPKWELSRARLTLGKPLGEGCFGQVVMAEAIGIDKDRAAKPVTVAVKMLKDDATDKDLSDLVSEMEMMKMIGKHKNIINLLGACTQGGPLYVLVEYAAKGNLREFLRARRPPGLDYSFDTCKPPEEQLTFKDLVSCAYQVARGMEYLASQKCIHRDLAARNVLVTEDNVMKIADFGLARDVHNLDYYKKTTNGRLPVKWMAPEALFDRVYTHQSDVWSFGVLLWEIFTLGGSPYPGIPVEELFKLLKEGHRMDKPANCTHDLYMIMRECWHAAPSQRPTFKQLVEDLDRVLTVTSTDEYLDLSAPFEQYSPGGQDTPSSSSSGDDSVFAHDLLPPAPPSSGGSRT

For the compound `COC[C@@H](C)Oc1cc(NC(=O)N(C)c2ccc(CN3CCOCC3=O)c(C=O)n2)ncc1C#N` [Compound 14, (R)-3-(5-cyano-4-((1-methoxyprop-2-yl)oxo)pyrid-2-yl)-1-(6-formyl-5-((3-carbonylmorpholino)methyl)pyrid-2-yl)-1-methylurea], the figures for the IC50 (in test [1]; in the test with Hep3B cells) were more than 1000 nM and less than 50 nM, respectively.
